We go through 15 molecules from ChEMBL document CHEMBL1131683, “Preparation of pyrrolidine and isoxazolidine benzamidines as potent inhibitors of coagulation factor Xa” (Bioorg Med Chem Lett, 1999).

pKi: −log10 of the molar value. A value given as a limit tells only on which side of the number the result lay.

Data set [1] is described as follows: Half life value in rabbits. The data set is classed as ADME, Oryctolagus cuniculus. The following applies: rabbit, in vivo.
A short description of data set [2]: Clearance rate in rabbits. The following applies: rabbit, in vivo. The class given is ADME, organism-based, Oryctolagus cuniculus.
In a further data set the target is Coagulation factor X (Homo sapiens, UniProt P00742). The experiment in a line: Binding affinity against Coagulation factor X in an enzyme inhibition assay.
The target in a further data set is Serine protease 1 (Homo sapiens, UniProt P07477). The experiment in a line: Binding affinity against trypsin in an enzyme inhibition assay.
The species named for another data set is Oryctolagus cuniculus. The experiment in a line: Compound was tested for its effect in rabbit arterio-venous (A-V) shunt thrombosis model and the inhibitory dose was reported. The data set is classed as functional.

Coagulation factor X, sequence (P00742 41-179 limits assumed): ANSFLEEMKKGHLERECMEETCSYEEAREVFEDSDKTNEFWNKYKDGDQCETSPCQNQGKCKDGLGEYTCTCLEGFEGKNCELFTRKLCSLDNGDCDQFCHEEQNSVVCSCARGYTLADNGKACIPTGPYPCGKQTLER
Coagulation factor X, sequence (P00742 235-488 limits assumed): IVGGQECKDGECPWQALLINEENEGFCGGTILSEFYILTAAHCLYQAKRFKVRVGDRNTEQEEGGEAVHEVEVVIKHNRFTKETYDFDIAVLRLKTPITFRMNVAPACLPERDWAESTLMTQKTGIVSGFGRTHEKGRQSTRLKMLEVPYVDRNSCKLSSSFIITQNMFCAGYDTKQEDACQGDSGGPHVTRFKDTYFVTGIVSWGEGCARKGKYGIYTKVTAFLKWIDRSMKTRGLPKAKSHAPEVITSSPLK
Serine protease 1, sequence (P07477 whole entry): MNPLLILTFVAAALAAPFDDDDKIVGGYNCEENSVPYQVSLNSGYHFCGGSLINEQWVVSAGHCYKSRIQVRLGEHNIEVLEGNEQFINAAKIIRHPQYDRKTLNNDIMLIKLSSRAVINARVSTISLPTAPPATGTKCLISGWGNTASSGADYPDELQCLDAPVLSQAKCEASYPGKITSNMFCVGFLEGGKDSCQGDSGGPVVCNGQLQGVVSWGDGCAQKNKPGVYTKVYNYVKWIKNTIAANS

With `CC(C)OC(=O)[C@@H]1CN(Cc2ccc(-c3ccccc3S(N)(=O)=O)cc2)O[C@H]1c1cccc(C(=N)N)c1.O=C(O)C(F)(F)F.O=C(O)C(F)(F)F`, the half-life in data set [1] is less than 1 h. The clearance in data set [2] was greater than 33.3 mL/min/kg. Also, the pKi at Coagulation factor X is 8.74; at Serine protease 1 it was 7.03.

Regarding `CC(=O)[C@@H]1CN(Cc2ccc(-c3ccccc3S(N)(=O)=O)cc2)C[C@H]1c1cccc(C(=N)N)c1`, the pKi was 7.44 on Coagulation factor X and 6.70 at Serine protease 1.

At Coagulation factor X, `COC(=O)CN(CCCc1ccc(-c2ccccc2S(N)(=O)=O)cc1)c1cccc(C(=N)N)c1` gave a pKi of 8.89.

On to `N=C(N)c1cccc([C@@H]2CN(Cc3ccc(-c4ccccc4S(N)(=O)=O)cc3)C[C@H]2C(N)=O)c1`, for which the values for the pKi on Coagulation factor X and at Serine protease 1 were 6.82 and 6.30, respectively.

As to `COC(=O)[C@H]1CN(Cc2ccc(-c3ccccc3S(N)(=O)=O)cc2)C[C@H]1c1cccc(C(=N)N)c1`, the values for the pKi on Coagulation factor X and on Serine protease 1 were 6.77 and less than 5.80, respectively.

At Coagulation factor X, `CN(C)C(=O)[C@@H]1CN(Cc2ccc(-c3ccccc3S(N)(=O)=O)cc2)C[C@H]1c1cccc(C(=N)N)c1` gave a pKi of 6.40.

`CCOC(=O)[C@]1(C)CN(Cc2ccc(-c3ccccc3S(N)(=O)=O)cc2)C[C@H]1c1cccc(C(=N)N)c1`: the results for the pKi on Coagulation factor X and on Serine protease 1 were 7.59 and 6.12, respectively.

On to `CC(C)OC(=O)[C@@H]1CN(Cc2ccc(-c3ccccc3S(N)(=O)=O)cc2)C[C@H]1c1cccc(C(=N)N)c1.O=C(O)C(F)(F)F.O=C(O)C(F)(F)F`, for which the half-life in data set [1] was less than 1 h. This molecule also had a clearance in data set [2] greater than 33.3 mL/min/kg. Further, the figures for the pKi on Coagulation factor X and at Serine protease 1 were 8.24 and 7.01, respectively.

As for `N=C(N)c1cccc([C@@H]2CN(Cc3ccc(-c4ccccc4S(N)(=O)=O)cc3)C[C@@H]2C(=O)O)c1`, the pKi at Coagulation factor X was 6.34.

In the case of `COC(=O)[C@H]1CN(Cc2ccc(-c3ccccc3S(N)(=O)=O)cc2)C[C@@H]1c1cccc(C(=N)N)c1`, the pKi at Coagulation factor X was 7.89; on Serine protease 1, 6.70.

For the molecule `COC(=O)[C@@H]1CN(Cc2ccc(-c3ccccc3S(N)(=O)=O)cc2)O[C@H]1c1cccc(C(=N)N)c1`, the pKi is 8.51 on Coagulation factor X and 7.16 on Serine protease 1.

Turning to `CCCCOC(=O)[C@@H]1CN(Cc2ccc(-c3ccccc3S(N)(=O)=O)cc2)C[C@H]1c1cccc(C(=N)N)c1`, the pKi on Coagulation factor X is 7.92; on Serine protease 1 it was 6.96.

On Coagulation factor X, `N=C(N)c1cccc([C@@H]2CN(Cc3ccc(-c4ccccc4S(N)(=O)=O)cc3)C[C@H]2C(=O)O)c1` showed a pKi of 6.22.

As for `COC(=O)[C@@H]1CN(Cc2ccc(-c3ccccc3S(N)(=O)=O)cc2)C[C@H]1c1cccc(C(=N)N)c1.O=C(O)C(F)(F)F.O=C(O)C(F)(F)F` (stereo in doubt; 10), the pKi on Coagulation factor X was 8.32; on Serine protease 1, 7.20. Also, the ID50 in the data set filed under Oryctolagus cuniculus is greater than 1.4 µM/h/kg.

In the case of `COC(=O)[C@@H]1CN(Cc2ccc(-c3ccccc3S(N)(=O)=O)cc2)C[C@H]1c1cccc(C(=N)N)c1` (stereo in doubt; 15), the pKi on Coagulation factor X is 8.47; at Serine protease 1, 7.28.
